We go through 51 compounds from US20200325505A1, “FILAMENTOUS FUNGI CAPABLE OF PRODUCING VERY LONG CHAIN FATTY ACIDS” (UT-Battelle, LLC, priority 2019, published 2020).

For this data set, the system named is Mortierella elongata AG77. As to the kind of experiment: Carbon source utilisation in Biolog 96-well plates, formazan formation after tetrazolium addition. It counts as cell-based. To be noted: for Metabolized: Metabolized = more formazan formation than a control containing no carbon source, observed visually at 2 h, 24 h, 148 h; for Carbon sources that Mortierella elongata AG77 can metabolize: summary of Table 3. How it is done:
Two 300 mL volumes of growth medium comprising 1 g/L KH2PO4, 1 g/L MgSO4 7H2O, 0.1 g/L CaCl2, 0.02 g/L FeNaEDTA, 0.1 g/L NaCl, and either 1 g/L NH4NO3 or 20 g/L sucrose were prepared. Acidity was adjusted to 5.5 using NaOH and volumes of growth medium were autoclaved 30 min at 121° C. to sterilize. Aliquots of 200 μL of carbon-free medium or nitrogen-free medium were pipetted into each well of a set of 96-well plates previously prepared with lyophilized putative carbon or nitrogen sources (Biolog Inc., Hayward, Calif.). Inocula were prepared by perforating a culture of Mortierella elongata AG77 grown on 20 g/L potato dextrose agar with a 3 mm diameter cork borer and separating the surface mycelial mat from the solid growth medium using tweezers. Each well was inoculated with one inoculum. Cultures were incubated at 21° C. for 24 hours to allow metabolic changes to stabilize, and then 100 μL of 3 g/L tetrazolium chloride in water was added to each well. Formazan formation was observed visually at 2 h, 24 h, and 148 h.
Conclusions were based on rate and intensity of formazan formation using the 3-4,5-dimethylthiazol-2-yl)-2,5-diphenyltetrazolium bromide (MTT) assay. “Metabolized” indicates more formazan formation than a control containing no carbon source, and “Toxic” indicates less formazan formation than a control containing no carbon source. “Metabolized” and “Toxic” assignments are mutually exclusive. In this example, a compound may be “Metabolized” or “Toxic,” but not both.

Setting [1] is: compound as carbon source, Toxic = less formazan formation than a control containing no carbon source.

Molecules are shown by their SMILES. Read-outs that look alike come from different tables or passages of the source. Residues, ends and D or L forms follow the SMILES beside them.

For the compound `O=C[C@H](O)[C@H](O)[C@H](O)CO` [D-Ribose], the Toxic result is reported as “no”. For the same compound, under “compound as carbon source”, the Metabolized entry was “no”.
As to `O=C(O)[C@@H](O)[C@@H](O)[C@H](O)[C@@H](O)C(=O)O` [D-Saccharic Acid], the Toxic result is “no”. Moreover, the Metabolized entry (compound as carbon source) is on record as “no”.
Take `OC[C@@H](O)[C@@H](O)[C@H](O)[C@@H](O)CO` [D-Sorbitol]: the Toxic entry is “no” and the “Carbon sources that Mortierella elongata AG77 can metabolize” value is “can metabolize”. Besides, the Metabolized result (compound as carbon source) is “yes”.
Consider `O=C(CO)[C@@H](O)[C@@H](O)[C@H](O)CO` [D-Tagatose], for which the Toxic entry is on record as “no”. For the same compound, the Metabolized entry (compound as carbon source) was “no”.
For `O=C(O)[C@@H](O)[C@H](O)C(=O)O` [D-Tartaric Acid], the Metabolized entry (compound as carbon source) is reported as “no”.
Consider `C[C@H](O)[C@@H](N)C(=O)O` [D-Threonine], for which the Toxic entry is “no” and the “Carbon sources that Mortierella elongata AG77 can metabolize” value is reported as “can metabolize”. Besides, the Metabolized entry (compound as carbon source) is reported as “yes”.
For `OC[C@H]1O[C@H](O[C@H]2O[C@H](CO)[C@@H](O)[C@H](O)[C@H]2O)[C@H](O)[C@@H](O)[C@@H]1O` [D-Trehalose], the “Carbon sources that Mortierella elongata AG77 can metabolize” value was “can metabolize”. The Metabolized entry (compound as carbon source) is recorded as “yes”. The Toxic result under setting [1] is listed as “no”.
Consider `O=C[C@H](O)[C@@H](O)[C@H](O)CO` [D-Xylose], for which the Toxic entry is reported as “no”. Further, the Metabolized result (compound as carbon source) is listed as “no”.
Take `OC[C@@H](O)[C@H](O)[C@H](O)[C@@H](O)CO` [Dulcitol]: the Toxic result is recorded as “no”. The Metabolized result (compound as carbon source) was “no”.
For `O=CO` [Formic Acid], the Metabolized result (compound as carbon source) was “no”. Further, under setting [1], the Toxic entry is “no”.
On to `O=C(O)/C=C/C(=O)O` [Fumaric Acid], for which the Toxic entry is on record as “no” and the “Carbon sources that Mortierella elongata AG77 can metabolize” value was “can metabolize”. The Metabolized entry (compound as carbon source) was “yes”.
For `OCC(O)CO` [Glycerol], in that order: “no”, “can metabolize” and “yes”.
Take `O=C(O)CO` [Glycolic Acid]: the “Carbon sources that Mortierella elongata AG77 can metabolize” value is recorded as “can metabolize”. Moreover, the Metabolized entry (compound as carbon source) was “yes”. In addition, under setting [1], the Toxic result is on record as “no”.
For `NCC(=O)N[C@@H](CC(=O)O)C(=O)O` [Glycyl-L-Aspartic Acid] (H-Gly-Asp-OH), in that order: “can metabolize”, “yes” and “no”.
As to `NCC(=O)N1CCC[C@H]1C(=O)O` [Glycyl-L-Proline] (H-Gly-Pro-OH), the Toxic result is “no”. Moreover, for the setting “compound as carbon source”, the Metabolized result is recorded as “no”.
As for `O=CC(=O)O` [Glyoxylic Acid], the Metabolized result (compound as carbon source) is “no”.
In the case of `C=C(CC(=O)O)C(=O)O` [Itaconic Acid], the Metabolized result (compound as carbon source) is on record as “no”. In addition, the Toxic entry under setting [1] was “no”.
For `C[C@H](N)C(N)=O` [L-Alaninamide], the “Carbon sources that Mortierella elongata AG77 can metabolize” value is “can metabolize”. Besides, the Metabolized result (compound as carbon source) is “yes”. Also, the Toxic entry under setting [1] was “no”.
In the case of `O=C[C@H](O)[C@@H](O)[C@@H](O)CO` [L-Arabinose], the Toxic entry is listed as “no”. For the same compound, for the setting “compound as carbon source”, the Metabolized entry is “no”.
As to `OC[C@H](O)C(O)[C@@H](O)CO` [L-Arabitol], where the note is “compound as carbon source”, the Metabolized result was “no”. Also, the Toxic entry under setting [1] is recorded as “no”.
In the case of `C[C@H](O)[C@@H](O)[C@@H](O)[C@H](O)C=O` [L-Fucose], under “compound as carbon source”, the Metabolized result is on record as “no”. Further, the Toxic entry under setting [1] is on record as “no”.
In the case of `O=C1O[C@H]([C@@H](O)CO)[C@@H](O)[C@@H]1O` [L-Galactonic Acid-γ-Lactone], the “Carbon sources that Mortierella elongata AG77 can metabolize” value is listed as “can metabolize”. Moreover, the Metabolized result (compound as carbon source) is reported as “yes”. Moreover, under setting [1], the Toxic result is given as “no”.
With `O=C[C@@H](O)[C@H](O)[C@@H](O)[C@@H](O)CO` [L-Glucose], the Toxic entry is on record as “no”. Also, for the setting “compound as carbon source”, the Metabolized result was “no”.
In the case of `C[C@H](O)C(=O)O` [L-Lactic Acid], the “Carbon sources that Mortierella elongata AG77 can metabolize” value is on record as “can metabolize”. Also, the Metabolized entry (compound as carbon source) is listed as “yes”. The Toxic entry under setting [1] is listed as “no”.
On to `O=C[C@H](O)[C@H](O)[C@@H](O)CO` [L-Lyxose], for which the Toxic entry is on record as “no”. Under “compound as carbon source”, the Metabolized entry was “no”.
Take `O=C(O)C[C@H](O)C(=O)O` [L-Malic Acid]: under “compound as carbon source”, the Metabolized result is “no”. Besides, the Toxic result under setting [1] is listed as “no”.
For the compound `C[C@H](O)[C@H](O)[C@@H](O)[C@@H](O)C=O` [L-Rhamnose], the Metabolized entry (compound as carbon source) is recorded as “no”. Also, the Toxic result under setting [1] was “no”.
With `O=C(CO)[C@@H](O)[C@H](O)[C@@H](O)CO` [L-Sorbose], the Toxic entry was “no”. For the same compound, the Metabolized entry (compound as carbon source) is on record as “no”.
For `O=C(O)[C@H](O)[C@@H](O)C(=O)O` [L-Tartaric Acid], for the setting “compound as carbon source”, the Metabolized result is reported as “no”.
As to `OC[C@@H](O)[C@@H](O[C@@H]1O[C@H](CO)[C@H](O)[C@H](O)[C@H]1O)[C@H](O)[C@@H](O)CO` [Lactitol], the Toxic entry is recorded as “no”. Where the note is “compound as carbon source”, the Metabolized entry is “no”.
`O=C(O)CC(=O)O` [Malonic Acid]: the Metabolized result (compound as carbon source) is recorded as “no”.
Turning to `OC[C@@H](O)[C@@H](O[C@H]1O[C@H](CO)[C@@H](O)[C@H](O)[C@H]1O)[C@H](O)[C@@H](O)CO` [Maltitol], the Metabolized entry (compound as carbon source) is listed as “no”. In addition, the Toxic entry under setting [1] is “no”.
For the compound `OC[C@H]1O[C@H](O[C@H]2[C@H](O)[C@@H](O)[C@H](O)O[C@@H]2CO)[C@H](O)[C@@H](O)[C@@H]1O` [Maltose], the “Carbon sources that Mortierella elongata AG77 can metabolize” value is listed as “can metabolize”. Moreover, the Metabolized result (compound as carbon source) is reported as “yes”.
Turning to `O=C(O)[C@H](O)[C@@H](O)[C@H](O)[C@H](O)CO[C@H]1O[C@H](CO)[C@H](O)[C@H](O)[C@H]1O` [Melibionic Acid], the Metabolized result (compound as carbon source) was “no”. For the same compound, under setting [1], the Toxic entry is recorded as “no”.
Consider `COC(=O)C(C)=O` [Methyl Pyruvate], for which the “Carbon sources that Mortierella elongata AG77 can metabolize” value is reported as “can metabolize”. For the same compound, for the setting “compound as carbon source”, the Metabolized entry was “yes”. Besides, the Toxic entry under setting [1] is given as “no”.
On to `COC(=O)CCC(=O)O` [Mono Methyl Succinate], for which the Toxic result is given as “no”.
For `O=C(O)[C@@H](O)[C@H](O)[C@H](O)[C@@H](O)C(=O)O` [Mucic Acid], the Toxic result was “no”. The Metabolized result (compound as carbon source) is recorded as “no”.
Consider `CC(=O)N[C@@H](CO)[C@@H](O)[C@H](O)[C@H](O)CO` [N-Acetyl-D-Glucosaminitol], for which the Metabolized result (compound as carbon source) is “no”. Also, the Toxic entry under setting [1] is “no”.
On to `CC(=O)N[C@H]1[C@H]([C@H](O)[C@H](O)CO)OC(O)(C(=O)O)C[C@@H]1O` (stereo partly drawn) [N-Acetyl-Neuraminic Acid], for which the “Carbon sources that Mortierella elongata AG77 can metabolize” value was “can metabolize”. Moreover, for the setting “compound as carbon source”, the Metabolized result is reported as “yes”. Also, the Toxic result under setting [1] is reported as “no”.
The matching figures for `CC(=O)N[C@H]1[C@@H](O)[C@H](O)[C@@H](CO)O[C@H]1O` [N-Acetyl-β-D-Mannosamine]: “can metabolize”, “yes” and “no”.
Take `O=C(O)C(=O)O` [Oxalic Acid]: the Metabolized result (compound as carbon source) is reported as “no”.
With `O=C(O)C(=O)C(C(=O)O)C(O)C(=O)O` (stereo not drawn) [Oxalomalic Acid], the Toxic entry is listed as “no”. Besides, the Metabolized result (compound as carbon source) is “no”.
In the case of `OC[C@H]1O[C@H](OC[C@H]2OC(O)(CO)[C@@H](O)[C@@H]2O)[C@H](O)[C@@H](O)[C@@H]1O` (stereo partly drawn) [Palatinose], the “Carbon sources that Mortierella elongata AG77 can metabolize” value is recorded as “can metabolize”. For the same compound, the Metabolized result (compound as carbon source) was “yes”. Further, the Toxic result under setting [1] is given as “no”.
For the compound `CCC(=O)O` [Propionic Acid], the Toxic entry is “no”. In addition, the Metabolized result (compound as carbon source) was “no”.
Take `CC(=O)C(=O)O` [Pyruvic Acid]: the Metabolized entry (compound as carbon source) is recorded as “no”. Also, the Toxic result under setting [1] is on record as “no”.
Turning to `O=C(O)[C@]1(O)C[C@@H](O)[C@@H](O)[C@H](O)C1` [Quinic Acid], the Toxic entry is “no”. Besides, the Metabolized result (compound as carbon source) is given as “no”.
On to `OCc1ccccc1O[C@@H]1O[C@H](CO)[C@@H](O)[C@H](O)[C@H]1O` [Salicin], for which the Toxic result is recorded as “no” and the “Carbon sources that Mortierella elongata AG77 can metabolize” value is listed as “can metabolize”. For the same compound, for the setting “compound as carbon source”, the Metabolized result was “yes”.
For the compound `O=C(O)CCCCCCCCC(=O)O` [Sebacic Acid], the Toxic entry is given as “no”. Where the note is “compound as carbon source”, the Metabolized result is given as “no”.
Take `CCC(C)N` (stereo not drawn) [Sec-Butylamine]: the Metabolized result (compound as carbon source) is “no”. Further, the Toxic entry under setting [1] is recorded as “no”.
With `OC[C@@]12OC[C@@H](O1)[C@@H](O)[C@@H](O)[C@@H]2O` [Sedoheptulosan], the Metabolized result (compound as carbon source) is recorded as “no”. The Toxic result under setting [1] is on record as “no”.
For `C/C=C/C=C/C(=O)O` [Sorbic Acid], the Toxic entry is “no”. For the same compound, the Metabolized result (compound as carbon source) is “no”.
